Key:
HepG2 xenografts [1] = assay: HepG2 xenografts growth in nude mice; type: in vivo, Balb/c nude mice
Method: (§1) The HepG2 cells xenografts were established using the Balb/c nude mice (female, 7-week-old, 17–19 g, n = 30) (Shanghai Laboratory Animal Center, Shanghai Shi, China) were used to investigate the anti-hepatoma effect of 96. Animal experiments were reviewed and approved by the Binzhou Medical University Experimental Animal Committee. Briefly, HepG2 cells (1 × 10^7/0.2 ml PBS/mouse) were inoculated subcutaneously. Three days after the inoculation, the mice were randomly divided into five groups: the saline treated group (Control), 96 (0.2 mg/kg) group, 96 (1.0 mg/kg) treated group, 96 (5.0 mg/kg) treated group, and DOX (1.0 mg/kg) treated group. 96 were dissolved in saline containing 1% of DMSO and administered intraperitoneally every 2 d for 20 days. DOX was also administered intraperitoneally every 2 d for 20 d. The body weight and HepG2 xenografts volumes were recorded from the day of treatment, and xenografts volumes were calculated using the equation: tumour volume = length×(width)[2]×π/6. At the end of the experiment, mice were sacrificed and the xenografts were obtained for western blotting, HE staining and immunohistochemistry staining.

[2] = system: human acute mononuclear granulocyte leukaemia (THP-1); assay: Cytotoxicity, MTT assay, THP-1; type: cell-based; settings: for IC50: MTT, 24 h
Method in brief: (§2)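 Seed 1 × 10^4 cells/well, 24 h; treat 24 h, 10 concentrations 0.01–50 μg/mL, final DMSO 0.1% v/v; MTT 4 h, 37 °C; DMSO solubilisation; OD 570 nm. Viability % vs untreated; IC50, n = 3.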

[3] = system: human normal hepatic cell line (LO2); assay: Toxicity to normal cells, MTT assay, LO2; type: cell-based; settings: Homo sapiens, 24 h
Method in brief: as §2

[4] = system: p-IκBα in TNF-α-stimulated HepG2 cells; assay: TNF-α-stimulated phosphorylation of IκBα in HepG2 cells; type: cell-based, human; settings: HepG2, 1.0, 2.0, and 4.0 μM
Method: (§3) The HepG2 cells were treated with BAP 96 at different concentrations (1.0, 2.0, and 4.0 µM) for 3 h, and washed twice by PBS. The cells were lysed and the extracted proteins of cell lysates were separated by 10% SDS-PAGE gel electrophoresis, then transferred onto polyvinylidene fluorides membranes. The membranes were probed with antibodies and visualized using an enhanced chemiluminescence (ECL) detection kit.
(§4) It is known that NF-κB has been implicated in the crossroad of inflammation and cancer[25]^,[26]. In our previous study, some BAPs (such as 23 and 67) could inhibit NF-κB activation by inhibiting the phosphorylation of NF-κB (P65) and IκB[13]^,[14]. Herein, it is an urgent to resolve whether 96 has the same mechanism of action as 23 and 67. Therefore, the RAW264.7 cells were pretreated with LPS, and then treated with different concentrations (1.0, 2.0, 4.0 μM) of 96. […] Similarly, the HepG2 cells were pretreated with TNF-α, then treated with different concentrations (1.0, 2.0, and 4.0 μM) of 96.

[5] = Body weight of xenograft mice; type: in vivo; settings: 0.2, 1.0, 5.0 mg/kg i.p. every 2 d for 20 days
Method: as §1

[6] = system: human colon cancer cells (HCT116); assay: Cytotoxicity, MTT assay, HCT116; type: cell-based
Method in brief: as §2

[7] = system: human liver hepatocellular carcinoma cell line (HepG2); assay: Cytotoxicity, MTT assay, HepG2; type: cell-based; settings: for IC50: MTT, 24 h
Method in brief: as §2

[8] = system: BAX expression in HepG2 cells; assay: Western blot, BAX expression in HepG2 cells; type: cell-based, human; settings: HepG2, 1.0, 2.0, and 4.0 μM
Method: as §3

[9] = system: p-p65 in TNF-α-stimulated HepG2 cells; assay: TNF-α-stimulated phosphorylation of p65 in HepG2 cells; type: cell-based, human; settings: HepG2, 1.0, 2.0, and 4.0 μM
Method: as §3, §4

[10] = system: human breast cancer cells (MCF-7); assay: Cytotoxicity, MTT assay, MCF-7; type: cell-based
Method in brief: as §2

[11] = system: human cervical carcinoma cells (HeLa); assay: Cytotoxicity, MTT assay, HeLa; type: cell-based
Method in brief: as §2

HepG2 xenografts [12] = assay: HE staining of HepG2 xenografts; type: in vivo, Balb/c nude mice
Method: as §1
The HepG2 xenografts tissues were embedded using the paraffin, and sectioned for HE staining and immunohistochemistry staining. HE staining was performed routinely. The immunohistochemistry staining carried out as following. Briefly, the processed sections were incubated with the primary antibodies: Bcl-2 and TNF-α (NOVUS BIOLOGICALS) at 4 °C overnight. After washing, the anti-rabbit peroxidase-conjugated secondary antibody (Sigma-Aldrich, St. Louis, MO) was incubated for 1 h at RT. After washing with PBS, the cells were visualized using the 3,3'-diaminobenzidine (DAB) solution under the light microscope. The cell images were taken using a light microscopy (Olympus, Tokyo, Japan).

[13] = system: Bcl-2 expression in HepG2 cells; assay: Western blot, Bcl-2 expression in HepG2 cells; type: cell-based, human; settings: HepG2, 1.0, 2.0, and 4.0 μM
Method: as §3

[14] = system: human gastric adenocarcinoma cells (SGC7901); assay: Cytotoxicity, MTT assay, SGC7901; type: cell-based
Method in brief: as §2

[15] = quotient of IC50 towards LO2 cells

CN1CC(=Cc2cccc(N=Cc3cc(Br)ccc3O)c2)C(=O)C(=Cc2ccccc2F)C1 [Compound 96]
Growth of HepG2 xenografts (HepG2 xenografts [1]; 0.2 mg/kg intraperitoneally every 2 d for 20 days): slightly decreased the growth of HepG2 xenografts
Growth of HepG2 xenografts (HepG2 xenografts [1]; 1.0 mg/kg intraperitoneally every 2 d for 20 days): slightly decreased the growth of HepG2 xenografts
Growth of HepG2 xenografts (HepG2 xenografts [1]; 5.0 mg/kg intraperitoneally every 2 d for 20 days): significantly inhibited the growth of HepG2 xenografts
IC50 ([2]; Homo sapiens, THP-1, 24 h): < 2000 nM
IC50 [2]: 1100 ± 600 nM
THP-1 SI (selectivity index) [2, 15]: 18.1
IC50 [3]: 19900 ± 400 nM
Phosphorylation of IκBα induced by TNF-α [4]: dose-dependent downward trend
Toxicity judged by mice body weight [5]: correspondingly nontoxic at the experimental doses
IC50 ([6]; Homo sapiens, HCT-116, MTT, 24 h): 2500 ± 100 nM
HCT116 SI (selectivity index) [6, 15]: 8.0
IC50 ([7]; Homo sapiens, HepG2, 24 h): < 2000 nM
IC50 [7]: 1000 ± 400 nM
HepG2 SI (selectivity index) [7, 15]: 19.9
Expression of pro-apoptotic protein BAX [8]: dose-dependently increased
Phosphorylation of p65 induced by TNF-α [9]: dose-dependent downward trend
IC50 ([10]; Homo sapiens, MCF7, MTT, 24 h): 2500 ± 200 nM
MCF-7 SI (selectivity index) [10, 15]: 8.0
IC50 ([11]; Homo sapiens, HeLa, MTT, 24 h): 2100 ± 800 nM
HeLa SI (selectivity index) [11, 15]: 9.5
Fracted cells, HE staining (HepG2 xenografts [12]; 96 5.0 mg/kg, DOX 1.0 mg/kg): a plenty of fracted cells
Histopathological change of cell nucleus, HE staining (HepG2 xenografts [12]; HepG2 xenografts, versus model group): made the HepG2 cell nucleus wrinkled
Expression of anti-apoptotic protein Bcl-2 [13]: decreased in a dose-dependent manner
IC50 ([14]; Homo sapiens, SGC-7901, MTT, 24 h): 2400 ± 800 nM
SGC7901 SI (selectivity index) [14, 15]: 8.3
